The series relates to HepG2. In words: Genotoxicity in human HepG2 assessed as number of micronucleated cells at 4270 uM measured after 24 hrs by micronucleus test (reference value: 14 to 18). The class given is toxicity, cell-based. The conditions noted are these: hepg2, 24 h.

From ChEMBL document CHEMBL4680133, “Novel nitroimidazole derivatives evaluated for their trypanocidal, cytotoxic, and genotoxic activities” (Eur J Med Chem, 2020) come the findings set out here.

Each structure is given as a SMILES string.

In the case of `Cn1cnc([N+](=O)[O-])c1-n1cc(C2CC2)nn1`, the Activity was 27.
